In patent publication US20150292045A1, “ALTERNATIVE USES FOR HBV ASSEMBLY EFFECTORS” (INDIANA UNIVERSITY RESEARCH AND TECHNOLOGY CORPORATION, priority 2012, published 2015):
Like-named read-outs stand apart in the source and are kept apart here.

Tests used:
HBV [1] = assay: Suppression of secreted HBV DNA synthesis; type: cell-based; details: Hepatitis B virus
Description: Antiviral activity was measured using an inducible HBV expression system, AD38 cells. (Ladner, S. K. et al., Antimicrob Agents Chemother 41, 1715-20 (1997)). Initial experiments tested the activity of 10 μM HAP (percentage viral assembly at 24 hour). For active molecules, effective concentrations were determined for suppression of HBV production by 50% and by 90%; this value is reported in μM. Compound toxicity was tested in the parent cell line, HepG2. This is reported as the concentration required to suppress cell growth by 50%, CC50 (in μM) and as the ratio of CC50/EC50, also known as the therapeutic index. As a control and for comparison, the results for the nucleoside analog 3TC (lamivudine) also described.
(§1) CpAMs were used to treat a transient transfection of huh7 cells. Cytoplasmic RNA was harvested and quantified by RT-per. The transfection system is described by Lentz and Loeb (Lentz and Loeb (2010) J Virol Methods 169, 52-60.) Fresh medium with drug was added to cultured cells daily for four days at concentrations from 0.001 to 10 micromolar. The two points at 0.00001 are both controls where there was no drug and no DMSO. The controls and the DMSO-treated cells had similar amounts of RNA. […] (See FIG. 7)

HBV RNA = assay: Transient transfection of Huh-7 cells, cytoplasmic RNA quantified by RT-PCR; type: cell-based, hepatitis B virus; details: for EC50: Hepatitis B virus
Description: FIG. 7 Several compounds were used to treat a transient transfection of Huh-7 cells (Huh-7 is a well differentiated hepatocyte derived cellular carcinoma cell line). Cytoplasmic RNA was harvested and quantified by RT-per. Treatment/dynamic range/ED50: DMSO/1.6/NA; AT130/25/0.5 μM; HAP13/20/5 μM; HAP12/36/0.5 μM.
as §1

[2] = test system: HBc binding to the cccDNA; assay: cccDNA ChIP assay in HepG2 H1.3 cells; type: cell-based, hepatitis B virus; details: 10 days treatment
Excerpt: FIG. 6 HAP12 interferes with HBc binding to the cccDNA. It is herein described that using a cccDNA ChIP assay (a), that HBc is recruited onto the cccDNA in HBV replicating HepG2 cells (b) and in the HepG2 H1.3 stable cell line. […] It is believe that this finding is in agreement with the observed inhibition of cccDNA transcription and pgRNA production in HAP12 treated cells. HAP12 treatment is started at day 10 of HepG2 H1.3 cells “differentiation” (see legend to FIG. 3). Cross-linked chromatin was prepared from untreated and HAP12-treated cells at TO (before treatment, 10 gg “differentiation”) and at T10 (10 days of exposure to HAP12, 20 gg from beginning of […], #H1905-15). ChIPped chromatin was analyzed by qPCR with HBV cccDNA selective primers. Results are expressed as % of input. Histograms show mean values from two independent experiments; bars indicate standard deviations (SD).
Recruitment of HBc and cccDNA bound histones modifications were assessed using the cccDNA ChIP assay (Pollicino, 2006)

HBV [3] = assay: HepG2 H1.3 HBV stable clone: capsid-associated HBV-DNA, cccDNA and pgRNA by real-time PCR; type: cell-based, hepatitis B virus genotype D
Excerpt: HAP12 treatment is started at day 10 of “differentiation” when HBV replication is high and the cccDNA pool is expanded. pgRNA is transcribed from both cccDNA and integrated HBV. b) Cytoplasmic HBV core particles, nuclear cccDNA (c) and total mRNAs (d) were isolated from untreated and HAP12-treated cells at the indicated time points. HBV-DNA, cccDNA and pgRNA results are expressed as in FIG. 2. Histograms show mean values from two independent experiments; bars indicate standard deviations (SD).
By treating the HepG2 H1.3 cells with HAP12 before the establishment of the cccDNA pool it was shown that cccDNA formation and accumulation […] by HAP12. Under these conditions the effect on HBV replication is maximal. a) HAP12 treatment is started at day 0 of “differentiation” when HBV replication and cccDNA levels are very low. b) Cytoplasmic HBV core particles, nuclear cccDNA (c) and total mRNAs (d) were isolated from untreated and HAP12-treated cells at the indicated time points. HBV-DNA, cccDNA and pgRNA results are expressed as in FIG. 2. Histograms show mean values from two independent experiments; bars indicate standard deviations (SD).
(§2) The activity of the hetero-aryl-dihydropyrimidine HAP12 compound on capsid-associated HBV-DNA (TaqMan real-time PCR), cccDNA (TaqMan real-time PCR) (Werle-Lapostolle, Gastroenterology 2004) and pgRNA levels (quantitative realtime PCR) (Belloni, PNAS 2009) were assessed in three in vitro HBV replication models:
b) the HepG2 H1.3 genotype D HBV stable clone that accumulates cccDNA when cultured in “conditioned” medium at high confluence (Protzer, Gastroenterology 2007; Lucifora, J Hepatol 2011);

HBV [4] = assay: HepG2 cells transfected with linear full-length HBV DNA: capsid-associated HBV-DNA, cccDNA and pgRNA by real-time PCR; type: cell-based, hepatitis B virus genotype A
Excerpt: a) In HepG2 cells transfected with monomeric linear full length HBV pgRNA and HBV replication are dependent on cccDNA formation, chromatinization and transcription. b) Cytoplasmic HBV core particles were isolated from untreated and HAP12-treated cells at the indicated time points after transfection. Results are expressed as number of HBV DNA copies per transfected cells. c) cccDNA accumulation in untreated and HAP12-treated HepG2 cells transfected with wild type HBV genomes. qPCR analysis was performed using selective cccDNA primers to amplify cccDNA and beta-globin primers to normalize the DNA samples. Results are expressed as number of cccDNA copies per transfected cells. d) mRNAs were prepared from untreated and […] HepG2 cells transfected with wild type HBV genomes and harvested at the indicated times post-transfection. Specific primers were utilized to quantify the HBV pregenomic RNA and GAPDH amplification was used to normalize for equal loading of each RNA sample. All histograms show mean values from two independent experiments; bars indicate standard deviations (SD)
as §2
a) HepG2 cells transfected with a linear full-length genotype A HBV DNA (Gunther, J Virol 1995; Pollicino, Gastroenterology 2006);

HBV [5] = assay: AD38 stable cell line (tetracycline removal): cytoplasmic core particle HBV DNA and pgRNA; type: cell-based, hepatitis B virus genotype D; details: AD38 cells, treatment started at day 0 or day 6
Excerpt: FIG. 5 HAP12 targets cccDNA transcription in AD38 cells. […] The cccDNA pool is built up from the recycling of mature core particles to the nucleus after HBV replication is started from the pgRNA initially transcribed from the “tet-regulated” HBV integrated DNA (b). HAP12 treatment is started at day 0 (left panels) or day 6 (right panels). c) Cytoplasmic HBV core particles, and total mRNAs (d) were isolated from untreated and HAP12-treated cells at the indicated time points. HBV DNA, cccDNA and pgRNA results are expressed as in FIG. 2. All histograms show mean values from two independent experiments; bars indicate standard deviations (SD).
as §2
c) the AD38 cells are a stable HepG2-derived HBV genotype D clone that, upon tetracycline removal, expresses pgRNA,
assembles subviral particles in the cytoplasm, accumulates cccDNA in the nucleus and secretes HBV virions in the cell supernatant (Ladner, J Virol 1997).

[6] = Huh-7, 96 h, huh7 transient transfection, drug daily for four days, read-out: EC50 for RNA suppression
[7] = Huh-7 transient transfection, read-out: ED50 (cytoplasmic RNA)
[8] = HepG2 H1.3, treatment started at day 0, before establishment of the cccDNA pool
[9] = HepG2 H1.3, treatment started at day 10 of differentiation

Compound | EC50 (HBV [1]) | EC50 (HBV RNA; [6]) | EC50 (HBV RNA; [7]) | dynamic range (cytoplasmic RNA) (HBV RNA; Huh-7 transient transfection) | cccDNA HBc occupancy [2] | cccDNA-bound H3 histone acetylation [2] | cccDNA formation/accumulation (HBV [3]; [8]) | effect on HBV replication (HBV [3]; [8]) | effect on HBV replication (HBV [3]; [9]) | effect on pgRNA transcription (HBV [3]; [9]) | decrease in cccDNA levels (HBV [4]) | suppression of HBV replication (HBV [4]; 72 and 96 hrs) | peak reduction of pgRNA transcription (HBV [4]; at 96 hours) | effect on HBV replication (HBV [5]) | effect on pgRNA transcription (HBV [5])
COc1ccccc1/C(Br)=C(\NC(=O)c1ccc([N+](=O)[O-])cc1)C(=O)N1CCCCC1 [AT130, (E)-N-(1-Bromo-1-(2-methoxyphenyl)-3-oxo-3-(piperidin-1-yl)prop-1-en-2-yl)-4-nitrobenzamide] | 2400 nM | 500 nM | 500 nM | 25 | – | – | – | – | – | – | – | – | – | – | –
COC(=O)C1=C(CN2CCOCC2)NC(c2ccccn2)=NC1c1ccc(F)cc1Cl (centres unmarked) [HAP12] | 12 nM | 500 nM | 500 nM | 36 | strongly inhibited | sharp decrease | does not prevent | maximal | inhibitory effect | inhibitory effect | ~30% | complete suppression | > 50% | inhibitory effect | inhibitory effect
COC(=O)C1=C(CN2CCNCC2)NC(c2ccccn2)=NC1c1ccc(F)cc1Cl (centres unmarked) [HAP13] | 6100 nM | 5000 nM | 5000 nM | 20 | – | – | – | – | – | – | – | – | – | – | –
